# Measured values published in ChEMBL document CHEMBL1148804, “Enzyme adaptation to inhibitor binding: a cryptic binding site in phenylethanolamine N-methyltransferase” (J Med Chem, 2007).
# Organism: Homo sapiens
# Test: Ratio of Ki for wild type human PNMT to Ki for human PNMT K57 mutant
smiles,measurement,value
NS(=O)(=O)c1ccc2c(c1)CNCC2,Ratio Ki,0.02
